Counter-ions that a name gives are not always drawn.
Tested on: ISG reporter activity in THP1-Dual cell
Experiment: ISG reporter assay
Assay type: cell-based
Conditions: Homo sapiens, compounds incubated with cells for 24 hours, QUANTI-Blue, absorbance at 655 nm
Description: [Worded in the source for another cell line; this cell line is reported under the same test.] THP1-Blue cells (cat. no. thp-isg) were purchased from InvivoGen (Sandiago, USA). Penicillin—streptomycin (cat. no. L0022-100), Fetal Bovine Serum (FBS) (cat. no. S1480-500) and Roswell Park Memorial Institute (RPMI) 1640 media (cat. L0498-500) were purchased from biowest (Nuaille, France). Zeocin (cat. no. ant-zn-OS) and Normocin (cat. no. ant-nr-1) were purchased from InvivoGen (Sandiago, USA). QUANTI-Blue™ (cat. no. rep-qbs) was purchased from InvivoGen. THP1-Blue cells were cultured in RPMI 1640 medium with 10% heat-inactivated FBS, 100 μg/ml Normocin, 100 μg/ml Zeocin and 100 U/ml-100 μg/ml penicillin-streptomycin. The cells were incubated at 37° C. in a humidified atmosphere of 5% CO2.
THP1-Blue cells were seeded at 5×10^4 cells/well (90 μl/well). 10 μl of compounds were added to the cells and incubated for 24 hours. 20 μl of cell culture supernatant was dispensed new 96-well plate (cat. no. 30096) with 180 μl of QUANTI-Blue™ solution and incubated for 15 minutes at 37° C. The absorbance was measured by Varioskan Lux (Thermofisher Scientific, USA) at 655 nm.

| EC50 | SMILES |
| --- | --- |
| < 50 nM | CCn1nc(C)cc1C(=O)Nc1nc2cc(C(N)=O)cc(OC)c2n1C/C=C/Cn1c(NC(=O)c2cc(C)nn2CC)nc2cc(C(N)=O)cc(OCC#CC3CCN(C(=O)N4CCOCC4)CC3)c21 [Example 15, (E)-1-(4-(5-carbamoyl-2-(1-ethyl-3-methyl-1H-pyrazole-5-carboxamido)-7-((3-(1-(morpholine-4-carbonyl)piperidin-4-yl)prop-2-yn-1-yl)oxy)-1H-benzo[d]imidazol-1-yl)but-2-en-1-yl)-2-(1-ethyl-3-methyl-1H-pyrazole-5-carboxamido)-7-methoxy-1H-benzo[d]imidazole-5-carboxamide] |
| < 50 nM | CCn1nc(C)cc1C(=O)Nc1nc2cc(C(N)=O)cc(OC)c2n1C/C=C/Cn1c(NC(=O)c2cc(C)nn2CC)nc2cc(C(N)=O)cc(OCC#CC3CCN(C(=O)N4CCN(C(=O)OC(C)(C)C)CC4)CC3)c21 [Example 16, tert-butyl (E)-4-(4-(3-((5-carbamoyl-1-(4-(5-carbamoyl-2-(1-ethyl-3-methyl-1H-pyrazole-5-carboxamido)-7-methoxy-1H-benzo[d]imidazol-1-yl)but-2-en-1-yl)-2-(1-ethyl-3-methyl-1H-pyrazole-5-carboxamido)-1H-benzo[d]imidazol-7-yl)oxy)prop-1-yn-1-yl)piperidine-1-carbonyl)piperazine-1-carboxylate] |
| < 50 nM | CCn1nc(C)cc1C(=O)Nc1nc2cc(C(N)=O)cc(OC)c2n1C/C=C/Cn1c(NC(=O)c2cc(C)nn2CC)nc2cc(C(N)=O)cc(OCC#CC3CCN(C(=O)N4CCNCC4)CC3)c21 [Example 17, (E)-1-(4-(5-carbamoyl-2-(1-ethyl-3-methyl-1H-pyrazole-5-carboxamido)-7-((3-(1-(piperazine-1-carbonyl)piperidin-4-yl)prop-2-yn-1-yl)oxy)-1H-benzo[d]imidazol-1-yl)but-2-en-1-yl)-2-(1-ethyl-3-methyl-1H-pyrazole-5-carboxamido)-7-methoxy-1H-benzo[d]imidazole-5-carboxamide hydrochloride] |
| < 50 nM | CCn1nc(C)cc1C(=O)Nc1nc2cc(C(N)=O)cc(OC)c2n1C/C=C/Cn1c(NC(=O)c2cc(C)nn2CC)nc2cc(C(N)=O)cc(OCC#CC3CCN(C(=O)N4CCC(O)CC4)CC3)c21 [Example 18, (E)-1-(4-(5-carbamoyl-2-(1-ethyl-3-methyl-1H-pyrazole-5-carboxamido)-7-((3-(1-(4-hydroxypiperidine-1-carbonyl)piperidin-4-yl)prop-2-yn-1-yl)oxy)-1H-benzo[d]imidazol-1-yl)but-2-en-1-yl)-2-(1-ethyl-3-methyl-1H-pyrazole-5-carboxamido)-7-methoxy-1H-benzo[d]imidazole-5-carboxamide] |
| < 50 nM | CCn1nc(C)cc1C(=O)Nc1nc2cc(C(N)=O)cc(OC)c2n1C/C=C/Cn1c(NC(=O)c2cc(C)nn2CC)nc2cc(C(N)=O)cc(OCC#CC3CCN(S(C)(=O)=O)CC3)c21 [Example 19, (E)-1-(4-(5-carbamoyl-2-(1-ethyl-3-methyl-1H-pyrazole-5-carboxamido)-7-((3-(1-(methylsulfonyl)piperidin-4-yl)prop-2-yn-1-yl)oxy)-1H-benzo[d]imidazol-1-yl)but-2-en-1-yl)-2-(1-ethyl-3-methyl-1H-pyrazole-5-carboxamido)-7-methoxy-1H-benzo[d]imidazole-5-carboxamide] |
| < 50 nM | CCn1nc(C)cc1C(=O)Nc1nc2cc(C(N)=O)cc(OC)c2n1C/C=C/Cn1c(NC(=O)c2cc(C)nn2CC)nc2cc(C(N)=O)cc(OCC#CC3CCN(S(=O)(=O)C(C)C)CC3)c21 [Example 20, (E)-1-(4-(5-carbamoyl-2-(1-ethyl-3-methyl-1H-pyrazole-5-carboxamido)-7-((3-(1-(isopropylsulfonyl)piperidin-4-yl)prop-2-yn-1-yl)oxy)-1H-benzo[d]imidazol-1-yl)but-2-en-1-yl)-2-(1-ethyl-3-methyl-1H-pyrazole-5-carboxamido)-7-methoxy-1H-benzo[d]imidazole-5-carboxamide] |
| < 50 nM | CCn1nc(C)cc1C(=O)Nc1nc2cc(C(N)=O)cc(OC)c2n1C/C=C/Cn1c(NC(=O)c2cc(C)nn2CC)nc2cc(C(N)=O)cc(OCC#CC3CCN(S(=O)(=O)C4CC4)CC3)c21 [Example 21, (E)-1-(4-(5-carbamoyl-2-(1-ethyl-3-methyl-1H-pyrazole-5-carboxamido)-7-methoxy-1H-benzo[d]imidazol-1-yl)but-2-en-1-yl)-7-((3-(1-(cyclopropylsulfonyl)piperidin-4-yl)prop-2-yn-1-yl)oxy)-2-(1-ethyl-3-methyl-1H-pyrazole-5-carboxamido)-1H-benzo[d]imidazole-5-carboxamide] |
| < 50 nM | CCn1nc(C)cc1C(=O)Nc1nc2cc(C(N)=O)cc(OC)c2n1C/C=C/Cn1c(NC(=O)c2cc(C)nn2CC)nc2cc(C(N)=O)cc(OCC#CC3CCN(S(=O)(=O)C4CCCC4)CC3)c21 [Example 22, (E)-1-(4-(5-carbamoyl-2-(1-ethyl-3-methyl-1H-pyrazole-5-carboxamido)-7-methoxy-1H-benzo[d]imidazol-1-yl)but-2-en-1-yl)-7-((3-(1-(cyclopentylsulfonyl)piperidin-4-yl)prop-2-yn-1-yl)oxy)-2-(1-ethyl-3-methyl-1H-pyrazole-5-carboxamido)-1H-benzo[d]imidazole-5-carboxamide] |
| < 50 nM | CCn1nc(C)cc1C(=O)Nc1nc2cc(C(N)=O)cc(OC)c2n1C/C=C/Cn1c(NC(=O)c2cc(C)nn2CC)nc2cc(C(N)=O)cc(OCC#CC3CCN(S(=O)(=O)c4ccc(C)cc4)CC3)c21 [Example 23, (E)-1-(4-(5-carbamoyl-2-(1-ethyl-3-methyl-1H-pyrazole-5-carboxamido)-7-((3-(1-tosylpiperidin-4-yl)prop-2-yn-1-yl)oxy)-1H-benzo[d]imidazol-1-yl)but-2-en-1-yl)-2-(1-ethyl-3-methyl-1H-pyrazole-5-carboxamido)-7-methoxy-1H-benzo[d]imidazole-5-carboxamide] |
| < 50 nM | CCn1nc(C)cc1C(=O)Nc1nc2cc(C(N)=O)cc(OC)c2n1C/C=C/Cn1c(NC(=O)c2cc(C)nn2CC)nc2cc(C(N)=O)cc(OCC#CC3CCN(S(=O)(=O)N(C)C)CC3)c21 [Example 24, (E)-1-(4-(5-carbamoyl-2-(1-ethyl-3-methyl-1H-pyrazole-5-carboxamido)-7-methoxy-1H-benzo[d]imidazol-1-yl)but-2-en-1-yl)-7-((3-(1-(N,N-dimethylsulfamoyl)piperidin-4-yl)prop-2-yn-1-yl)oxy)-2-(1-ethyl-3-methyl-1H-pyrazole-5-carboxamido)-1H-benzo[d]imidazole-5-carboxamide] |
| < 50 nM | CCN(CC)S(=O)(=O)N1CCC(C#CCOc2cc(C(N)=O)cc3nc(NC(=O)c4cc(C)nn4CC)n(C/C=C/Cn4c(NC(=O)c5cc(C)nn5CC)nc5cc(C(N)=O)cc(OC)c54)c23)CC1 [Example 25, (E)-1-(4-(5-carbamoyl-2-(1-ethyl-3-methyl-1H-pyrazole-5-carboxamido)-7-methoxy-1H-benzo[d]imidazol-1-yl)but-2-en-1-yl)-7-((3-(1-(N,N-diethylsulfamoyl)piperidin-4-yl)prop-2-yn-1-yl)oxy)-2-(1-ethyl-3-methyl-1H-pyrazole-5-carboxamido)-1H-benzo[d]imidazole-5-carboxamide] |
| < 50 nM | CCn1nc(C)cc1C(=O)Nc1nc2cc(C(N)=O)cc(OC)c2n1C/C=C/Cn1c(NC(=O)c2cc(C)nn2CC)nc2cc(C(N)=O)cc(OCC#CC3CCN(S(=O)(=O)N4CCCC4)CC3)c21 [Example 26, (E)-1-(4-(5-carbamoyl-2-(1-ethyl-3-methyl-1H-pyrazole-5-carboxamido)-7-((3-(1-(pyrrolidin-1-ylsulfonyl)piperidin-4-yl)prop-2-yn-1-yl)oxy)-1H-benzo[d]imidazol-1-yl)but-2-en-1-yl)-2-(1-ethyl-3-methyl-1H-pyrazole-5-carboxamido)-7-methoxy-1H-benzo[d]imidazole-5-carboxamide] |
| < 50 nM | CCn1nc(C)cc1C(=O)Nc1nc2cc(C(N)=O)cc(OC)c2n1C/C=C/Cn1c(NC(=O)c2cc(C)nn2CC)nc2cc(C(N)=O)cc(OCC#CC3CCN(S(=O)(=O)N4CCOCC4)CC3)c21 [Example 27, (E)-1-(4-(5-carbamoyl-2-(1-ethyl-3-methyl-1H-pyrazole-5-carboxamido)-7-((3-(1-(morpholinosulfonyl)piperidin-4-yl)prop-2-yn-1-yl)oxy)-1H-benzo[d]imidazol-1-yl)but-2-en-1-yl)-2-(1-ethyl-3-methyl-1H-pyrazole-5-carboxamido)-7-methoxy-1H-benzo[d]imidazole-5-carboxamide] |
| < 50 nM | CCn1nc(C)cc1C(=O)Nc1nc2cc(C(N)=O)cc(OC)c2n1C/C=C/Cn1c(NC(=O)c2cc(C)nn2CC)nc2cc(C(N)=O)cc(OCC#CC3CCN(S(=O)(=O)N4CCN(C(=O)OC(C)(C)C)CC4)CC3)c21 [Example 28, tert-butyl (E)-4-((4-(3-((5-carbamoyl-1-(4-(5-carbamoyl-2-(1-ethyl-3-methyl-1H-pyrazole-5-carboxamido)-7-methoxy-1H-benzo[d]imidazol-1-yl)but-2-en-1-yl)-2-(1-ethyl-3-methyl-1H-pyrazole-5-carboxamido)-1H-benzo[d]imidazol-7-yl)oxy)prop-1-yn-1-yl)piperidin-1-yl)sulfonyl)piperazine-1-carboxylate] |
